The conditions of assay [1]: metabolite from biotransformation in the liver; cited from earlier work.
For another assay, the target named is 5HT1F (Homo sapiens, UniProt P30939). The experiment in a line: pKi of test compounds, 5HT1F receptor. In kind it is binding.
The next assay has as its target T1, 5HT1A (Homo sapiens, UniProt P08908).
T1 sequence (P08908 1-422): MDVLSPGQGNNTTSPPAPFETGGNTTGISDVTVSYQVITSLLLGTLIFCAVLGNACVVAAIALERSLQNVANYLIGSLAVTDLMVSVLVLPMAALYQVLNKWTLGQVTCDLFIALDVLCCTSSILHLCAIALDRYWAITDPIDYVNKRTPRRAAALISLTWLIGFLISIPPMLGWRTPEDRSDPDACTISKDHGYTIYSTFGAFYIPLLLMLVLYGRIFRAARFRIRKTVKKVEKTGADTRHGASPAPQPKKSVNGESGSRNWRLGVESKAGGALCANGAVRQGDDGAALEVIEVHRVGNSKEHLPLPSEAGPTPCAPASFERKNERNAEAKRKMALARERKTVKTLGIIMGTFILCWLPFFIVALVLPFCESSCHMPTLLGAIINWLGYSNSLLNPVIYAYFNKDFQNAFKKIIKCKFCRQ
The assay is described as follows: pKi of test compounds, 5HT1A receptor. In kind it is binding.

The target of another assay is T2, Alpha2A (Homo sapiens, UniProt P08913).
T2 sequence (P08913 1-465): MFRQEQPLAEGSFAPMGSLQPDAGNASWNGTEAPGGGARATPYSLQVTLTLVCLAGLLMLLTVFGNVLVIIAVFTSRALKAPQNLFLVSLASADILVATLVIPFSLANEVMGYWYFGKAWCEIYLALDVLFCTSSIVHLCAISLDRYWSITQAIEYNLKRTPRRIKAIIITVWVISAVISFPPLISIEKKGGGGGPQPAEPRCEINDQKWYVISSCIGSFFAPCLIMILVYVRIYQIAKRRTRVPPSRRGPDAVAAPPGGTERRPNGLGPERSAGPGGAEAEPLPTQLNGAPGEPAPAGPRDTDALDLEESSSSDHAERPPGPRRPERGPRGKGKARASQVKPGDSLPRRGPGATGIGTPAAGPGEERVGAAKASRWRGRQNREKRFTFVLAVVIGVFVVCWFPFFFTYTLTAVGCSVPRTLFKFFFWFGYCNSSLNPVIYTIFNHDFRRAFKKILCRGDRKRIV
The assay is described as follows: pKi of test compounds, adrenergic receptor Alpha2A. Type of assay: binding.

For another assay, the target named is Alpha2B (Homo sapiens, UniProt P18089). The assay is described as follows: pKi of test compounds, adrenergic receptor Alpha2B. Type of assay: binding.
Alpha2B, sequence (P18089 whole entry): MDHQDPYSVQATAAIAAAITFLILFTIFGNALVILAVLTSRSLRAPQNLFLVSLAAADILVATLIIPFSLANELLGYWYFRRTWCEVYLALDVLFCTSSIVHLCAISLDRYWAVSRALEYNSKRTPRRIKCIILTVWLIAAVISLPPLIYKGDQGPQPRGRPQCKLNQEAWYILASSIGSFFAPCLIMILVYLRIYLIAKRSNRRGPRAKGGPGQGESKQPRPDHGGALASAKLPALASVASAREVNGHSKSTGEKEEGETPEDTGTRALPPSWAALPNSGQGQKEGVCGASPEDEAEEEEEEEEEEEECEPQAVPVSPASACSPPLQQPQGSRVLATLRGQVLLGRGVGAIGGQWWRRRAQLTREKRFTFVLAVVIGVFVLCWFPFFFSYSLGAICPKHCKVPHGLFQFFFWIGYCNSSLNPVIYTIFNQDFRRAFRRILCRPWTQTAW
Another assay has as its target T3, Alpha2C (Homo sapiens, UniProt P18825).
T3 sequence (P18825 1-462): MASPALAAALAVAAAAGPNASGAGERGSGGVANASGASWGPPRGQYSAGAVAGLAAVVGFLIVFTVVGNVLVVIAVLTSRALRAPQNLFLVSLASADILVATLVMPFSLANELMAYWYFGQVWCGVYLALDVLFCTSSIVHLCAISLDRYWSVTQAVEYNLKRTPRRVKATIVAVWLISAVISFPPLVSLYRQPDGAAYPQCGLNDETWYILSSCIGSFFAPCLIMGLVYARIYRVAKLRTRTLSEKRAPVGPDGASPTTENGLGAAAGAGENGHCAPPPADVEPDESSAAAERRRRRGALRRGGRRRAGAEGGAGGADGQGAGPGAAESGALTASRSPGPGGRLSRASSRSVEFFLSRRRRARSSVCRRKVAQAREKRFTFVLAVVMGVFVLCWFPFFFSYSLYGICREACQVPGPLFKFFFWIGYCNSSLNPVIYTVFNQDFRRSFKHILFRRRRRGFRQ
The assay is described as follows: pKi of test compounds, adrenergic receptor Alpha2C. Type of assay: binding.

A further assay has as its target T4, Alpha1A (Homo sapiens, UniProt P35348).
T4 sequence (P35348 1-466): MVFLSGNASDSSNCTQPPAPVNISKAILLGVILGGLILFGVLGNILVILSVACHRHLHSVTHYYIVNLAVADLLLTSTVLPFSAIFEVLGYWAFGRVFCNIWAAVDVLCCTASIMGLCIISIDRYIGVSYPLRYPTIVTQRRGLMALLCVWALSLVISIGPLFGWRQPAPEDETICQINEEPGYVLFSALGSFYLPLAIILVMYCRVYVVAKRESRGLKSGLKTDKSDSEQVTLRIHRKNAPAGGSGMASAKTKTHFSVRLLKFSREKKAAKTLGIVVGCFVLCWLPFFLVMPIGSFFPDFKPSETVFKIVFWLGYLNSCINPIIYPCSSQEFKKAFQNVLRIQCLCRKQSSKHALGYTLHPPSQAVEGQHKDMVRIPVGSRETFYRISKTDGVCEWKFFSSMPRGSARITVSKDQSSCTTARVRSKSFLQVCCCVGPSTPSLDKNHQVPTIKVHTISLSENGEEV
The assay is described as follows: pKi of test compounds, adrenergic receptor Alpha1A. In kind it is binding.

The test system of the next assay is acute schizophrenia. The conditions noted are these: neuroleptic responsive inpatients with acute schizophrenia; cited from earlier work.
The target in another assay is Beta2 (Homo sapiens, UniProt P07550). The assay is described as follows: pKi of test compounds, adrenergic receptor Beta2. Type of assay: binding.
Beta2, sequence (P07550 whole entry): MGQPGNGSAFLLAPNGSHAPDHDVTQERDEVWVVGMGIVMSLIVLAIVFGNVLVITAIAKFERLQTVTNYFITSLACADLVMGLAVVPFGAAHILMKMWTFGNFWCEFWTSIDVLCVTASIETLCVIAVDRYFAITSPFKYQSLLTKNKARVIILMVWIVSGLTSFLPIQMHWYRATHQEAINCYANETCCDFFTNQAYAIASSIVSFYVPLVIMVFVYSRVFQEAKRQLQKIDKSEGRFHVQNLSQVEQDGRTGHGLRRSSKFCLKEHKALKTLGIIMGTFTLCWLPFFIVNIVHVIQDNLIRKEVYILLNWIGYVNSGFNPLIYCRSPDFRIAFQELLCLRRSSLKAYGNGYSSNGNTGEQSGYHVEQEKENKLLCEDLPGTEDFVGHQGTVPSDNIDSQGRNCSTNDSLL
Another assay has as its target D3 (Homo sapiens, UniProt P35462). The assay is described as follows: pKi of test compounds, D3 receptor. The conditions noted are these: for Ki: read-out: pKi D3 (converted). Type of assay: binding.
The target in the next assay is D1 (Homo sapiens, UniProt P21728). The experiment in a line: pKi of test compounds, D1 receptor. Type of assay: binding.
A further assay has as its target 5-HT2A receptor (Homo sapiens, UniProt P28223). The assay is described as follows: pKi of test compounds, 5-HT2A receptor. Type of assay: binding.
The next assay concerns the target T5, 5HT2C (Homo sapiens, UniProt P28335).
T5 sequence (P28335 33-458): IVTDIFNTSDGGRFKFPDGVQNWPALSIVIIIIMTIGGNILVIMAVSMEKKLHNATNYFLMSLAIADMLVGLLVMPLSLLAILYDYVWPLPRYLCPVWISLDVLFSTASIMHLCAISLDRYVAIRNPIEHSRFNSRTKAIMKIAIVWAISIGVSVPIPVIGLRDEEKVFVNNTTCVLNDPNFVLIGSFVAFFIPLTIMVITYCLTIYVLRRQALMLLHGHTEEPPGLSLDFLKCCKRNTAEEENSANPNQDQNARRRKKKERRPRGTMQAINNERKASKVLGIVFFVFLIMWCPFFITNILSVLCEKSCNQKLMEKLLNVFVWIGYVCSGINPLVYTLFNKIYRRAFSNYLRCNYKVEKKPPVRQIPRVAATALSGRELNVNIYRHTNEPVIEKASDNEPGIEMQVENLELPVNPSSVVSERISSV
The experiment in a line: pKi of test compounds, 5HT2C receptor. Type of assay: binding.

For another assay, the target named is 5HT6rat (Rattus norvegicus, UniProt P31388). The experiment in a line: pKi of test compounds, 5HT6 receptor. In kind it is binding. The conditions noted are these: rat.
5HT6rat, sequence (P31388 whole entry): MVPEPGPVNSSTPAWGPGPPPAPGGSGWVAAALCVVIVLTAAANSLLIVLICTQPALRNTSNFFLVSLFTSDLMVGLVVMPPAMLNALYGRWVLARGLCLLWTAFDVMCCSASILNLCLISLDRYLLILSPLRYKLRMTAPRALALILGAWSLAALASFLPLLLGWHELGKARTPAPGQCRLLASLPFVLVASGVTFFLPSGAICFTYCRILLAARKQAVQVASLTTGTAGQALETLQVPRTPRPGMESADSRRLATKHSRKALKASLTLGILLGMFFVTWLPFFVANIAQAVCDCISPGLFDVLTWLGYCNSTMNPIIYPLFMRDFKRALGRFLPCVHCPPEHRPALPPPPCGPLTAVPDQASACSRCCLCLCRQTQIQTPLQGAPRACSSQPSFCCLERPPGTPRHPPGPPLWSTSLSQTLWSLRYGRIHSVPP
Another assay concerns the target 5HT1B (Homo sapiens, UniProt P28222). The assay is described as follows: pKi of test compounds, 5HT1B receptor. In kind it is binding.
The target of the next assay is 5HT1E (Homo sapiens, UniProt P28566). The experiment in a line: pKi of test compounds, 5HT1E receptor. In kind it is binding.
5HT1E, sequence (P28566 whole entry, species assumed): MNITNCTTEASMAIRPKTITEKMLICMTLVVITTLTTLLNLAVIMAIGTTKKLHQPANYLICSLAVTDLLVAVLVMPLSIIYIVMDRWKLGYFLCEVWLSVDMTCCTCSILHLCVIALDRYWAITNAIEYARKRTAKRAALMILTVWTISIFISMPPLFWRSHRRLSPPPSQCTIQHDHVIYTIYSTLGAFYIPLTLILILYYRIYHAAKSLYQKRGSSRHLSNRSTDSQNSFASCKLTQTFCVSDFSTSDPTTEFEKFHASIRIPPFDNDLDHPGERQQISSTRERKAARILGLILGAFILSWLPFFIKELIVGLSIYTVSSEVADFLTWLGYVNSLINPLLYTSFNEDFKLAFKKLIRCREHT
The next assay addresses Beta1 (Homo sapiens, UniProt P08588). The experiment in a line: pKi of test compounds, adrenergic receptor Beta1. In kind it is binding.
For another assay, the target named is 5HT1D (Homo sapiens, UniProt P28221). The assay is described as follows: pKi of test compounds, 5HT1D receptor. In kind it is binding. Conditions: read-out: pKi 5HT1D (converted).
5HT1D, sequence (P28221 whole entry, species assumed): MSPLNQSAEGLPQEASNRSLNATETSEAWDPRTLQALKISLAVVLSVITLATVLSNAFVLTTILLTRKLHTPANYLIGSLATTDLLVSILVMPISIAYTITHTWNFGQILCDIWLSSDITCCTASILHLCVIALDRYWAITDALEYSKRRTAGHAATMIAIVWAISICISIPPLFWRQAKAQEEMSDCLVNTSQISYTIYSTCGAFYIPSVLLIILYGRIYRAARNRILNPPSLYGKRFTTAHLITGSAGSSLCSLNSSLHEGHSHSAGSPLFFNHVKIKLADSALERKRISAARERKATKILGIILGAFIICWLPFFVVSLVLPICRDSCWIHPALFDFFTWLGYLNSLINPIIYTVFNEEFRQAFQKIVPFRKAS
The target in a further assay is 5HT7rat (Rattus norvegicus, UniProt P32305). The experiment in a line: pKi of test compounds, 5HT7 receptor. In kind it is binding.
5HT7rat, sequence (P32305 whole entry): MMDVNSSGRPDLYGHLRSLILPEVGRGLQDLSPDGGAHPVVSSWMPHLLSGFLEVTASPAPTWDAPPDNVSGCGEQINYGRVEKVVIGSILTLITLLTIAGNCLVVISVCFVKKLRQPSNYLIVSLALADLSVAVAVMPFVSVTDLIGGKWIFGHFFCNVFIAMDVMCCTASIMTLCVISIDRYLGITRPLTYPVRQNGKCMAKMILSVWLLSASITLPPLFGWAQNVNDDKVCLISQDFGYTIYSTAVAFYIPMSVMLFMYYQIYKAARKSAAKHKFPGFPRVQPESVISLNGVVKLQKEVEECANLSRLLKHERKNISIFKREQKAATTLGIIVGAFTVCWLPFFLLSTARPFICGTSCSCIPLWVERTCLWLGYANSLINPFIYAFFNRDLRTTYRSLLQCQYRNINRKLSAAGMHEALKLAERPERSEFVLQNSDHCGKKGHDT
For the next assay, the target named is T6, D4 receptor (Homo sapiens, UniProt P21917).
T6 sequence (P21917 1-419): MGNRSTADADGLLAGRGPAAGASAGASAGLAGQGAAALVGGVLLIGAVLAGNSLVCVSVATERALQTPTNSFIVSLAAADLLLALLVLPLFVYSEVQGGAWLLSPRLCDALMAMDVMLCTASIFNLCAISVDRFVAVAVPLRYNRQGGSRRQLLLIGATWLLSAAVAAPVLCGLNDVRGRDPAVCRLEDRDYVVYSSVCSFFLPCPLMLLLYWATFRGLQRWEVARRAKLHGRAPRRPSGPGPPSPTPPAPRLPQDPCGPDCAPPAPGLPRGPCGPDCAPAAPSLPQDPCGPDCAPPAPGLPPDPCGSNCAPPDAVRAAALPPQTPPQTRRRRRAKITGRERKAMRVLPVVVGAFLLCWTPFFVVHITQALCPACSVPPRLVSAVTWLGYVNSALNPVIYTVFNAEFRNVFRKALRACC
The assay is described as follows: pKi of test compounds, D4 receptor. In kind it is binding. The conditions noted are these: D4; read-out: pKi D4 (converted).

Another assay has as its target other Dopamine receptors. The experiment in a line: pKi towards other Dopamine receptors. Type of assay: binding. Conditions: D1, D2 and D3.
Another assay addresses other 5HT receptors. The experiment in a line: pKi towards other 5HT receptors. In kind it is binding. Conditions: 5-HT1A, 1B, 1D, 1E, 1F, 5-HT2B, 5-HT2C, 5-HT6 (rat), 5-HT7 (rat).
The next assay has as its target 5HT2B (Homo sapiens, UniProt P41595). The assay is described as follows: pKi of test compounds, 5HT2B receptor. Type of assay: binding.
A further assay addresses D2 (Homo sapiens, UniProt P14416). The experiment in a line: pKi of test compounds, D2 receptor. Type of assay: binding.

Molecules are shown by their SMILES.

Beta1, sequence (P08588 whole entry): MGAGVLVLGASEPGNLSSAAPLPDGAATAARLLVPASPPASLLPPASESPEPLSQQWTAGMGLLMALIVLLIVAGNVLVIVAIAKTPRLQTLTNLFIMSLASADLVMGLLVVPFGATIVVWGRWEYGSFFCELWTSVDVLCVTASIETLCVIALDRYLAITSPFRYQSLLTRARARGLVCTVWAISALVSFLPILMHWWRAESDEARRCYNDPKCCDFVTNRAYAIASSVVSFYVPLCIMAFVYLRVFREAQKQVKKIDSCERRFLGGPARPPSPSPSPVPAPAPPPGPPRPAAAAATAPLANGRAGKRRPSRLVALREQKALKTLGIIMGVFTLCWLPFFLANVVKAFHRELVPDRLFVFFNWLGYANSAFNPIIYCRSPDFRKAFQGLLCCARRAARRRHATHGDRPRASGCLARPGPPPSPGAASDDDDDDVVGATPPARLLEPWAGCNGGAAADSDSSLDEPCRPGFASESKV
D3, sequence (P35462 whole entry): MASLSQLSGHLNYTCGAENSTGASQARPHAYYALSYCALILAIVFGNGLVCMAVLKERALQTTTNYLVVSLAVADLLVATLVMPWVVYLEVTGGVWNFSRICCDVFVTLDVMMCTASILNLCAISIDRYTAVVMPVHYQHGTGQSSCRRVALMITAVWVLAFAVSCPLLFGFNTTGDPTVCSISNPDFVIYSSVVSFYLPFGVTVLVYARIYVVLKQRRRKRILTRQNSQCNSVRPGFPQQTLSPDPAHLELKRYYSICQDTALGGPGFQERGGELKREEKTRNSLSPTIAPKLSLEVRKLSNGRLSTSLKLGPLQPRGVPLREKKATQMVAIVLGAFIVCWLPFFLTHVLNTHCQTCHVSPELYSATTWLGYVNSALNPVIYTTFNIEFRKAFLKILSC
5HT1B, sequence (P28222 whole entry, species assumed): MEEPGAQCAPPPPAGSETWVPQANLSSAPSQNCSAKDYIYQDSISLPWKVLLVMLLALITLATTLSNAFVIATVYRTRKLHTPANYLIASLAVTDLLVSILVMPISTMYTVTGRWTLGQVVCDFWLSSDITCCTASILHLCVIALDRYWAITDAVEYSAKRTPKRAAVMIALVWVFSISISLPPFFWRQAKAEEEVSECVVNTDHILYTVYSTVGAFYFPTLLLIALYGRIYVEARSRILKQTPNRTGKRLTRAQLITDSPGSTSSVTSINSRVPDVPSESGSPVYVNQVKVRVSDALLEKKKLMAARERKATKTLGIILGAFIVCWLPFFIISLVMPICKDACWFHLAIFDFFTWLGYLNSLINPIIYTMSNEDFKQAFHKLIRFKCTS
5-HT2A receptor, sequence (P28223 whole entry): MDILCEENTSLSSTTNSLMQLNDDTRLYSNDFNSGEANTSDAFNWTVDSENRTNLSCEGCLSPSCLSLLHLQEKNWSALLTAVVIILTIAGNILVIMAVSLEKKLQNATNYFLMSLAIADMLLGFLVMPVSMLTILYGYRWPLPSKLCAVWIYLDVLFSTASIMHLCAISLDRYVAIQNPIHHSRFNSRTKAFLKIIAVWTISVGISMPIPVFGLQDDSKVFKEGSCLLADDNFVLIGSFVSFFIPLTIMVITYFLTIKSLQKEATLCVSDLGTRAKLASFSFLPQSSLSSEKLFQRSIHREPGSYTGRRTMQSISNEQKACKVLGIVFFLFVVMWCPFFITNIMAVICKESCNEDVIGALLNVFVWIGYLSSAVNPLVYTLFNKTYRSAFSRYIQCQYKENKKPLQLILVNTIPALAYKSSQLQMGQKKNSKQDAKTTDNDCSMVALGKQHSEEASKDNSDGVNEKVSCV
5HT1F, sequence (P30939 whole entry, species assumed): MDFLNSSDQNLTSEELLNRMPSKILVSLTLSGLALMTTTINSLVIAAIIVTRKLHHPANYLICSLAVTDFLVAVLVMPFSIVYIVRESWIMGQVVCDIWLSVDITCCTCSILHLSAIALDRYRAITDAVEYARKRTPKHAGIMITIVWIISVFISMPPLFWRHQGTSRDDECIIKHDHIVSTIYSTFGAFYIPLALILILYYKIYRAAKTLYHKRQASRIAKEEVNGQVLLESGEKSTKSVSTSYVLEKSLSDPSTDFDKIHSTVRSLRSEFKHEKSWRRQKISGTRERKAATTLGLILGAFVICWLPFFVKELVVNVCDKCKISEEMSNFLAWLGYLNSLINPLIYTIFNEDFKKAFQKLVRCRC
Excerpt for other Dopamine receptors: ‘Other Dopamine receptors’ are, for instance, D1, D2 and D3.
pKi values of test compounds for Dopamine receptors can be measured using commonly known assays.

With `Cc1nc2n(c(=O)c1CCN1CCC(c3noc4cc(F)ccc34)CC1)CCCC2O` (stereo not drawn) [9-hydroxyrisperidone], in assay [1], the “pharmacological activity and intensity relative to parent risperidone” value was “of the same pharmacological activity and intensity as parent risperidone”.
With `CN1CCN(C2=Nc3cc(Cl)ccc3Nc3ccccc32)CC1` [Clozapine], the Ki on 5HT1F was 100 to 1000 nM.
With `Fc1cccc2c1O[C@H]1CNC[C@@H]1O2` [Fluparoxan], the Ki at 5HT1A was 100 to 1000 nM; at Alpha2A, 1 to 10 nM; on Alpha2B, 1 to 10 nM; at Alpha2C it was 1 to 10 nM; on Alpha1A, 100 to 1000 nM.
For `Clc1ccc(N2CCN(Cc3c[nH]c4ncccc34)CC2)cc1` [L-745,870], the antipsychotic efficacy entry in the assay on acute schizophrenia is on record as “ineffective as an antipsychotic”.
For `CN1CC2c3ccccc3Oc3ccc(Cl)cc3C2C1` (stereo not drawn) [ORG5222], the Ki was 1 to 10 nM on 5HT1A; 1 to 10 nM at Alpha2A; > 1000 nM on Beta2; 1 to 10 nM on D3; 1 to 10 nM at D1; < 1 nM at 5-HT2A receptor. Also, the Ki on 5HT2C was < 1 nM; on 5HT6rat (read-out: pKi 5HT6rat (converted)), < 1 nM; at 5HT1B, 1 to 10 nM; at 5HT1E, 10 to 100 nM; at Beta1 it was > 1000 nM; at 5HT1D, 1 to 10 nM. Also, the Ki on Alpha2C is 10 to 100 nM; at 5HT7rat it was < 1 nM; on Alpha1A, < 1 nM; at D4 receptor, 1 to 10 nM.
With `NC(=O)C1(N2CCCCC2)CCN(CCCC(=O)c2ccc(F)cc2)CC1` [Pipamperone, 1′-[3-(p-Fluorobenzoyl)propyl]-[1,4′-bipiperidine]-4′-carboxamide], the Ki is > 1000 nM at 5HT1A; 100 to 1000 nM at Alpha2A; > 1000 nM at Beta2; 100 to 1000 nM on D3; 100 to 1000 nM at 5HT1B; > 1000 nM at 5HT1E. In addition, the Ki at Beta1 is > 1000 nM; at 5HT1F it was > 1000 nM; at 5HT1D it was 100 to 1000 nM; at Alpha2C it was 100 to 1000 nM; on D4 receptor it was 1 to 10 nM. The “pKi value towards other Dopamine receptors” value on other Dopamine receptors is on record as “less than 8”. The “pKi value towards other 5HT receptors” value on other 5HT receptors is given as “less than 8”.
As to `O=C(CC1CCN(CCOc2cccc3c2OCCO3)C1)c1ccc(F)cc1` (stereo not drawn) [S16924], the “pKi 5HT1A” value on 5HT1A is on record as 8-9. Further, the “pKi Alpha2A” value at Alpha2A is 6-7. Moreover, at Beta2, the “pKi Beta2” value is listed as <6. The “pKi 5HT2B” value on 5HT2B is 8-9. Moreover, the “pKi D3” value at D3 is 7-8. The “pKi 5-HT2A” value on 5-HT2A receptor was >9. In addition, the “pKi 5HT2C” value on 5HT2C is given as 7-8. The “pKi 5HT6rat” value at 5HT6rat is given as 7-8. Moreover, the “pKi D2” value on D2 was 7-8. Further, the “pKi Beta1” value at Beta1 is on record as <6. Besides, the “pKi Alpha2B” value on Alpha2B is 7-8. Further, the “pKi Alpha2C” value on Alpha2C is listed as 6-7. Besides, at 5HT7rat, the “pKi 5HT7rat” value is listed as 7-8. Besides, the “pKi Alpha1A” value on Alpha1A was 8-9.

Values taken from US20050119253A1, “Method of treating mental disorders using of D4 and 5-HT2A antagonists, inverse agonists or partial agonists” (priority 2003, published 2005).
